# Residues, ends and D or L forms follow the SMILES beside them. *: point of attachment. OiPr = CC(C)O*
row,Structure (SMILES),melting point
1,FC(F)(F)c1cccc(Oc2ccnc(-c3ccc(Cl)cc3)n2)c1,92 °C
2,N#Cc1ccc(C2=NOC(CO)C2)c2ccccc12 (stereo unspecified),138 to 139 °C
3,O=C(NC(=O)c1ccc(OCCn2ccnc2)cc1)c1ccccc1,152 to 154 °C
4,CN(CCn1ncc2ccccc2c1=O)CC(O)c1ccc(NS(C)(=O)=O)cc1 (stereo unspecified),134 to 137 °C
5,COC(=O)c1cccc(CN2C(=O)N(c3ccccc3Br)Cc3cnc(Nc4ccccc4)nc32)c1,79 to 82 °C
6,CCCCCC(C)C(C)c1cc(O)c2c3c(c(=O)oc2c1)SCC3 (stereo unspecified),165 to 166 °C
7,CCOCc1nc2c(N)nc3cc(OCCCCCCNS(C)(=O)=O)ccc3c2n1CC(C)(C)NS(C)(=O)=O,176 to 180 °C
8,CCCC(C)(C)c1cc(N2CCC(C)C2=O)no1 (stereo unspecified),30 to 31 °C
9,Cc1c(O)cc(N)cc1C(=O)O,> 250 °C
10,Fc1cc(N=C2NCCN2)c(F)c(F)c1F,141 to 143 °C
11,O=C1c2ccccc2-c2c1cccc2-c1nc2ccncc2[nH]1,236 to 238 °C
12,O=[N+]([O-])c1ccc2sc3ccc(F)cc3c2c1,200 to 202 °C
13,C=CCc1ccc(C2=NNC(=O)CC2)cc1O,175 to 178 °C
14,CCCn1c(COCC)nc2c(N)nc3ccc(OCc4cccnc4)cc3c21,190 to 191 °C
15,CC1(C(=O)Nc2ccc(-n3nc(C(F)(F)F)cc3C(F)(F)F)cc2)C=CCCC1 (stereo unspecified),108 to 110 °C
16,CC(c1ccc(C(=O)N(C)C2CCCCC2)cc1)n1cnc2ccccc21 (stereo unspecified),142 to 145 °C
17,COc1ccc(N2CCN(c3c(C)c(C)c4c(c3C)C(=O)C(C)(C)O4)CC2)cc1,144 to 146 °C
18,O=C(O)CN(C(=O)Cc1ccc(Cl)c(Cl)c1)[C@H](CN1CC[C@H](O)C1)c1ccccc1,162 to 164 °C
19,COC(=O)c1ccc2nn(-c3cc(C(C)(C)CC(C)(C)C)cc(C(C)(C)c4ccccc4)c3O)nc2c1,141 to 143 °C
20,O=S(=O)(Nc1cccc(CCOCc2noc(-c3ccc(C(F)(F)F)cc3)n2)c1)C(F)(F)F,83 to 86 °C
21,COc1c(C)c2c(c(O)c1C/C=C1\CCC(C(=O)O)C1)C(=O)OC2 (stereo unspecified),128 to 130 °C

# Results, then the compound that gave them:
row,melting point,Structure (SMILES)
1,178 °C,Cc1coc(NCCN2CCC(Nc3nc4ccccc4n3Cc3ccc(F)cc3)CC2)n1
2,108 to 110 °C,O=S(=O)(NCc1ccc(Br)cc1)c1ccccc1Br
3,> 260 °C,Cc1cc2nc3c4cc(O)ccc4n(CCN(C)C)c3nc2cc1C
4,115 to 117 °C,Cc1ccc(S(=O)(=O)OC[C@H]2COc3ccc4nc(C)ccc4c3O2)cc1
5,99.5 to 101 °C,CCCCNCc1cccc(OCCCNc2nc(N)nn2C)c1
6,185 to 195 °C,N#Cc1cnc2cnc(F)cc2c1Nc1cccc(Br)c1
7,264 to 265 °C,FC(F)(F)c1n[nH]c2c1nc(-c1ccccc1)c1ccccc12
8,198 to 199 °C,CNC(=NC#N)NCCSCc1nsc(NC(=N)N)n1
9,162 to 165 °C,COc1ccc(C2(CC(=O)O)CNC(=O)C2)cc1OC (stereo unspecified)
10,115 to 157 °C,COC(COC(C)=O)C1=CCC2C3CCC4=CC(=O)CCC4(C)C3CCC12C (stereo unspecified)
11,127 to 129 °C,CC(c1ccc(Cl)c(Cl)c1)n1[nH]c(N)cc1=O (stereo unspecified)
12,106 to 109 °C,CCCCn1nnnc1-c1ccc(C(=O)NCC2CCCC2(C)C)cc1 (stereo unspecified)
13,78.6 to 80.8 °C,O=Cc1cccc(C=Cc2ccc3ccccc3n2)c1
14,255 to 256 °C,Cc1nc(N2CCC[C@H]2CO)c2nc(-c3ccccc3)cc-2[nH]1
15,54 to 57 °C,CNc1ccsc1C(=O)OC
16,184 to 186 °C,Cc1noc(NS(=O)(=O)c2ccsc2C(=O)NS(=O)(=O)c2cccc3c(N(C)C)cccc23)c1Br
17,178 °C,Nc1cc(OCc2ccccc2)ccc1NC(=O)c1ccc(C23CC4CC(CC(C4)C2)C3)c(OCc2ccccc2)c1
18,219 to 221 °C,CC(C)OC(=O)C(C)NC(=O)C(CC(=O)O)NC(=O)C(C)N (stereo not drawn) (H-Ala-Asp-Ala-OiPr; configuration not given here)
19,108 °C,O=C(O)CCNC(=O)C(=Cc1ccc(Oc2ccccc2)cc1)CS
20,313 to 319 °C,CC1CC(=O)NN=C1c1ccc(Nc2nc(=O)c3ccccc3[nH]2)cc1 (stereo unspecified)
21,120 to 122 °C,CC(=O)Oc1cc2c(s1)CCN(C(C(=O)C1CC1)c1ccccc1F)C2 (stereo unspecified)
22,217 to 218 °C,COc1c(Cl)cc(Cn2c(S)nc3ccccc32)cc1Cl
23,191 to 194 °C,CCS(=O)(=O)N(c1cc(-c2ncnc(C(F)(F)F)c2Cl)c(F)cc1C#N)S(=O)(=O)CC
24,48 to 49 °C,COCn1c(Cl)c(Cl)c(C#N)c1Cl
25,254 to 256 °C,Cc1cc(C)c2[nH]c(C(=O)O)cc2c1
26,166 °C,COc1ccc(C(CC(=O)Nc2ccc(NC(=O)Nc3ccccc3C)cc2)NC(=O)c2ccc(C(=O)O)cc2)cc1OC (stereo unspecified)
27,133 °C,CCCc1ccc(-n2cnc(-c3ccc(C#N)cc3)c2)cc1
28,122 to 124 °C,CCc1cc(C(=O)Nc2ccccc2)on1
29,197 to 199 °C,FC(F)(F)c1cccc2c1c(N1CCOCC1)nc1c(-c3nc(C4CC4)no3)ncn12
30,64 °C,N#Cc1cccc(C2OCCO2)n1

# — a melting point compilation (Tetko et al.; mined from patent text by program, amines drawn as free bases though some values may be those of a salt)
